Test results taken from ChEMBL document CHEMBL1157959, “Pimarane diterpene and cytochalasin derivatives from the endophytic fungus Eutypella scoparia PSU-D44” (2006).
Values after ≈ are worked out from the molar mass of the structure shown.

What was measured:
Staphylococcus aureus = experiment: Antimicrobial activity against Staphylococcus aureus ATCC 25923; assay type: functional
Nannizzia gypsea = experiment: Antimicrobial activity against Microsporum gypseum SH-MU-4; assay type: functional

Row | Structure (SMILES) | MIC (Staphylococcus aureus) [µM] | MIC (Nannizzia gypsea) [µM]
1 | C=C[C@]1(C)C=C2C(=O)[C@]3(O)OC[C@@]4(CCCC(C)(C)[C@@]43O)[C@@]2(O)[C@H](O)C1 [DIAPORTHEIN B] | 87.8 (≈ 32 µg/mL) | 
2 | COc1ccc(C[C@@H]2NC(=O)[C@@]34OC(=O)O/C=C/[C@@](C)(O)C(=O)[C@@H](C)C/C=C/[C@H]3[C@H](O)[C@](C)(O)[C@@H](C)[C@@H]24)cc1 [SCOPARASIN B] |  | 30.3 (≈ 16.5 µg/mL)
